In the data set the test system is THP-1 macrophages. The data set is described as follows: Effect of compounds on host cell viability (MTT). Conditions: read-out: 24h LC50; THP1 macrophages, 24-hour incubation, MTT assay (Supplemental Table 2). It is filed as cell-based. The protocol: The cells were cultured at 37C, 5% CO2 in RPMI medium (ATCC) supplemented with 10% FBS, 1% Penicillin/Streptomycin and 0.05 mM of β-mercaptoethanol. Cells were used in experiments up to passage 10.
Effect of the compounds on THP-1 cell viability measured using thiazolyl blue tetrazolium bromide which measures cell metabolic activity (MTT). THP-1 cells were seeded in a 96 well plate (25,000 cells/well) overnight then differentiated with 150 nM phorbol 12-myristate 13-acetate (PMA) over 72 hours. Macrophages were then treated with compounds resuspended in RPMI media (1- 50 μM) for 24 hours. Media was replaced with thiazolyl blue tetrazolium bromide solubilized in RPMI media (0.5 mg/mL) and incubated at 37°C for 2 hours. The reduced formazan crystals were solubilized with isopropyl alcohol and the absorbance of the resulting solution was measured at 560 nm with a background subtraction at 670 nm. […] This process was repeated with a 72-hr incubation and extended concentration range (1 - 300 μM) for select compounds.
(In general: Tetrazolium assays rely on reduction of a dye to a coloured formazan, in cell work by metabolically active cells.)
For the compound `O=[N+]([O-])c1ccc(-n2cc(C(F)(F)F)nc2-c2ccc(Cl)cc2)cc1` [Compound 29], the CC50 was over 50 µM.

For `N#Cc1ccc(CNC2CCN(c3ccc(-n4nc(C(F)(F)F)cc4-c4ccc(-c5ccc(C(F)(F)F)cc5)cc4)cc3)C2)cc1` (stereo not shown) [Compound 19], the CC50 is over 50 µM.

Consider `CC(C)(C)OC(=O)N1CCC(Oc2ccc(-n3nc(C(F)(F)F)cc3-c3ccc(-c4ccc(C(F)(F)F)cc4)cc3)cc2)CC1` [Compound 28], for which the CC50 was over 50 µM.

Turning to `Fc1cccc(CN2CCC(Oc3ccc(-n4nc(C(F)(F)F)cc4C4CCCCC4)cc3)CC2)c1` [Compound 372], the CC50 was over 50 µM.

In the case of `CC(C)(C)OC(=O)N1CCC(Nc2ccc(-n3nc(C(F)(F)F)cc3-c3ccco3)cc2)C1` (stereo not shown) [Compound 269], the CC50 is over 50 µM.

Take `CCc1cc(-c2ccc(-c3ccc(C(F)(F)F)cc3)cc2)n(-c2ccc(Br)cc2)n1` [Compound 280]: the CC50 was over 50 µM.

On to `Cc1cc(C(F)(F)F)n(-c2ccc(NC3CCNC3)cc2)n1` (stereo not shown) [Compound 284], for which the CC50 was over 50 µM.

Regarding `FC(F)(F)c1cc(-c2ccco2)n(-c2ccc(Br)cc2)n1` [Compound 267], the CC50 was over 50 µM.

For `Fc1cccc([C@@H]2CCCN2)c1` [Compound 278], the CC50 was over 50 µM.

Turning to `FC(F)(F)c1ccc(CNC2CCN(c3ccc(-n4nc(C(F)(F)F)cc4-c4ccc(-c5ccc(C(F)(F)F)cc5)cc4)cc3)C2)cc1` (stereo not shown) [Compound 24], the CC50 was over 50 µM.

As for `FC(F)(F)c1cc(C2CC2)n(-c2ccc(Br)cc2)n1` [Compound 266], the CC50 was over 50 µM.

Regarding `CC(C)(C)OC(=O)N1CCN(c2ccc(-n3nc(C(F)(F)F)cc3-c3ccc(C#CC(F)(F)F)cc3)cc2)CC1` [Compound 47], the CC50 was over 50 µM.

In the case of `FC(F)(F)c1ccc(-c2cnnn2-c2ccc(NC3CCNCC3)cc2)cc1` [Compound 434], the CC50 came to 24.6 µM.

Turning to `N#Cc1ccc(CN2CCC(Nc3ccc(-n4nc(C(F)(F)F)cc4C4CCCCC4)cc3)C2)cc1` (stereo not shown) [Compound 358], the CC50 came out at 13.2 µM.

Turning to `Cc1cc(C(F)(F)F)n(-c2ccc(Br)cc2)n1` [Compound 274], the CC50 was over 50 µM.

Regarding `FC(F)(F)c1ccc(-c2ccc(-c3cc(C(F)(F)F)nn3-c3ccc(N4CCC(NCc5cccs5)C4)cc3)cc2)cc1` (stereo not shown) [Compound 20], the CC50 was over 50 µM.

For the compound `Cc1cc(C(F)(F)F)nn1-c1ccc(NC2CCNC2)cc1` (stereo not shown) [Compound 313], the CC50 is over 50 µM.

In the case of `O=C(CO)Nc1ccc(-n2cc(C(F)(F)F)nc2-c2ccc(C(F)(F)F)cc2)cc1` [Compound 404], the CC50 is over 50 µM.

As for `Nc1ccc(-n2nc(C(F)(F)F)cc2C2CCCCC2)cc1` [Compound 338], the CC50 was over 50 µM.

For the compound `CC(C)(C)OC(=O)N1CCC(Oc2ccc(-n3nc(C(F)(F)F)cc3C3CCCCC3)cc2)CC1` [Compound 367], the CC50 was over 50 µM.

Turning to `FC(F)(F)c1ccc(-c2ccc(-c3cc(C(F)(F)F)nn3-c3ccc(NC4CCN(Cc5ccc(-c6ccccc6)cc5)C4)cc3)cc2)cc1` (stereo not shown) [Compound 36], the CC50 is over 50 µM.

With `NC(=O)CN1c2ccccc2C2CCCC21` (stereo not shown) [Compound 320], the CC50 was over 50 µM.

Consider `FC(F)(F)c1ccc(-c2cc(C(F)(F)F)nn2CCNC2CCN(Cc3ccccc3)C2)cc1` (stereo not shown) [Compound 294], for which the CC50 stood at 28.2 µM.

In the case of `C#Cc1ccc(-c2cc(C(F)(F)F)nn2-c2ccc(N3CCNCC3)cc2)cc1` [Compound 43], the CC50 was 0.5 µM.

For `FC(F)(F)c1cc(C2CCCCC2)n(-c2ccc(N3CCC(OCc4ccccc4)C3)cc2)n1` (stereo not shown) [Compound 412], the CC50 was over 50 µM.

Regarding `CC(C)(C)OC(=O)N1CCC(Nc2ccc(-n3nc(C(F)(F)F)cc3C(F)(F)F)cc2)C1` (stereo not shown) [Compound 283], the CC50 was over 50 µM.

`FC(F)(F)c1cc(C(F)(F)F)n(-c2ccc(Br)cc2)n1` [Compound 276]: the CC50 is 32.2 µM.

Regarding `Oc1ccc(-n2nc(C(F)(F)F)cc2-c2ccc(-c3ccc(C(F)(F)F)cc3)cc2)cc1` [Compound 27], the CC50 is over 50 µM.

`O=C(CNCc1cccc(F)c1)Nc1ccc(-n2nc(C(F)(F)F)cc2C2CCCCC2)cc1` [Compound 352]: the CC50 amounted to 29.3 µM.

In the case of `CC(C)(C)OC(=O)NCC(=O)Nc1ccc(-n2nc(C(F)(F)F)cc2C2CCCCC2)cc1` [Compound 340], the CC50 was over 50 µM.

Turning to `FC(F)(F)c1ccc(-c2ccc(-c3cc(C(F)(F)F)nn3-c3ccc(N4CCC(NCc5ccc6ccccc6c5)C4)cc3)cc2)cc1` (stereo not shown) [Compound 17], the CC50 is over 50 µM.

Consider `CCOC(=O)CNc1ccc(-n2cc(C(F)(F)F)nc2-c2ccc(C(F)(F)F)cc2)cc1` [Compound 403], for which the CC50 is over 50 µM.

Consider `OCCn1nc(C(F)(F)F)cc1-c1ccc(C(F)(F)F)cc1` [Compound 293], for which the CC50 was over 50 µM.

On to `FC(F)(F)c1ccc(-c2ccc(-c3cc(C(F)(F)F)nn3-c3ccc(Br)cc3)cc2)cc1` [Compound 2], for which the CC50 is over 50 µM.

As to `CCc1cc(C(F)(F)F)nn1-c1ccc(NC2CCN(C(=O)OC(C)(C)C)C2)cc1` (stereo not shown) [Compound 317], the CC50 was over 50 µM.

`Nc1ccc(-n2cc(C(F)(F)F)nc2-c2ccc(Cl)cc2)cc1` [Compound 30]: the CC50 is over 50 µM.

In the case of `CC(C)c1cc(C(F)(F)F)nn1-c1ccc(Br)cc1` [Compound 277], the CC50 is over 50 µM.

As for `NCCNC1CCN(c2ccc(-n3nc(C(F)(F)F)cc3C3CCCCC3)cc2)CC1` [Compound 418], the CC50 was 12.6 µM.

As to `FC(F)(F)c1ccc(-c2ccc(-c3cc(C(F)(F)F)nn3-c3ccc(NC4CN(C(c5ccccc5)c5ccccc5)C4)cc3)cc2)cc1` [Compound 4], the CC50 is over 50 µM.

For `NCC(=O)Nc1ccc(-n2cc(C(F)(F)F)nc2-c2ccccc2C(F)(F)F)cc1` [Compound 297], the CC50 is over 50 µM.

For `O=[N+]([O-])c1ccc(-n2nc(C(F)(F)F)cc2-c2ccc(C#CC3CC3)cc2)cc1` [Compound 39], the CC50 was over 50 µM.

With `NCC(=O)Nc1ccc(-n2ccnc2-c2ccc(C(F)(F)F)cc2)cc1` [Compound 406], the CC50 is over 50 µM.

In the case of `FC(F)(F)c1ccc(-c2ccc(-c3cc(C(F)(F)F)nn3-c3ccc(N4CCC(NCc5ccccc5Cl)C4)cc3)cc2)cc1` (stereo not shown) [Compound 12], the CC50 is over 50 µM.

Take `FC(F)(F)c1c[nH]c(-c2ccc(Cl)cc2)n1` [Compound 35]: the CC50 was over 50 µM.

With `NC(=O)CNc1ccc(-n2cc(C(F)(F)F)nc2-c2ccc(C(F)(F)F)cc2)cc1` [Compound 405], the CC50 was over 50 µM.

Turning to `O=[N+]([O-])c1ccc(-n2nc(-c3ccc(Br)cc3)cc2C(F)(F)F)cc1` [Compound 38], the CC50 was over 50 µM.

As for `FC(F)(F)c1cc(C2CCCCC2)n(-c2ccc(OC3CCN(Cc4ccccc4)C3)cc2)n1` (stereo not shown) [Compound 378], the CC50 is over 50 µM.

Turning to `Cc1ccccc1CNC1CN(c2ccc(-n3nc(C(F)(F)F)cc3-c3ccc(-c4ccc(C(F)(F)F)cc4)cc3)cc2)C1` [Compound 48], the CC50 was over 50 µM.

Take `Oc1ccc(CN2CCC(Oc3ccc(-n4nc(C(F)(F)F)cc4C4CCCCC4)cc3)CC2)cc1` [Compound 374]: the CC50 was 8.2 µM.

On to `NCC(=O)NCCn1cc(C(F)(F)F)nc1-c1ccc(C(F)(F)F)cc1` [Compound 295], for which the CC50 is over 50 µM.

On to `FC(F)(F)c1c[nH]c(-c2ccc(-c3ccccc3)cc2)n1` [Compound 31], for which the CC50 is over 50 µM.

With `CCc1cc(C(F)(F)F)nn1-c1ccc(Br)cc1` [Compound 316], the CC50 was over 50 µM.

As for `O=[N+]([O-])c1ccc(-n2nc(C(F)(F)F)cc2-c2ccc(-c3ccc(C(F)(F)F)cc3)cc2)cc1` [Compound 9], the CC50 is over 50 µM.

Consider `CCCN(CCC)CCc1c[nH]c2ccccc12` [Compound 411], for which the CC50 was over 50 µM.

Regarding `FC(F)(F)c1cc(C2CCCCC2)n(-c2ccc(N3CCC(OCc4ccccc4)CC3)cc2)n1` [Compound 414], the CC50 was over 50 µM.

For the compound `CC(=O)NCCCOc1ccc(CN2CCC(Oc3ccc(-n4nc(C(F)(F)F)cc4C4CCCCC4)cc3)CC2)cc1` [Compound 430], the CC50 came out at 16.5 µM.

As for `O=[N+]([O-])c1ccc(-n2nc(C3CCCCC3)cc2C(F)(F)F)cc1` [Compound 335], the CC50 was over 50 µM.

Consider `FC(F)(F)c1cn(-c2ccc(NC3CCNC3)cc2)c(-c2ccncc2)n1` (stereo not shown) [Compound 333], for which the CC50 is over 50 µM.

Turning to `FC(F)c1cc(-c2ccc(-c3ccc(C(F)(F)F)cc3)cc2)n(-c2ccc(Br)cc2)n1` [Compound 279], the CC50 was over 50 µM.

For the compound `CC(C)c1cc(C(F)(F)F)nn1-c1ccc(NC2CCN(C(=O)OC(C)(C)C)C2)cc1` (stereo not shown) [Compound 286], the CC50 is over 50 µM.

As for `FC(F)(F)c1cc(-c2ccc(Cl)c(Cl)c2)n(-c2ccc(NC3CCNC3)cc2)n1` (stereo not shown) [Compound 261], the CC50 worked out at 22.4 µM.

Regarding `COc1ccc(CNC2CCN(c3ccc(-n4nc(C(F)(F)F)cc4-c4ccc(-c5ccc(C(F)(F)F)cc5)cc4)cc3)C2)cc1` (stereo not shown) [Compound 14], the CC50 turned out to be 50 µM.

Consider `Cc1cc(C(F)(F)F)n(-c2ccc(NC3CCN(C(=O)OC(C)(C)C)C3)cc2)n1` (stereo not shown) [Compound 282], for which the CC50 is over 50 µM.

As for `Fc1cccc(CN2CCC(Nc3ccc(-n4nc(C(F)(F)F)cc4C4CCCCC4)cc3)CC2)c1` [Compound 322], the CC50 was over 50 µM.

With `N#Cc1ccc(-n2cc(C(F)(F)F)nc2-c2ccc(Br)cc2)c(F)c1` [Compound 291], the CC50 was over 50 µM.

Take `CC(C)(C)OC(=O)N1CCC(Nc2ccc(-n3nc(C(F)(F)F)cc3C3CC3)cc2)C1` (stereo not shown) [Compound 268]: the CC50 is over 50 µM.

Turning to `CC(C)(C)OC(=O)NC1CN(c2ccc(-n3nc(C(F)(F)F)cc3-c3ccc(-c4ccc(C(F)(F)F)cc4)cc3)cc2)C1` [Compound 22], the CC50 is over 50 µM.

The values are drawn from publication doi:10.1101/2025.11.04.686469, “Discovery of Host-Directed Small Molecules with Broad Anti-Leishmanial Efficacy” (bioRxiv, 2025).
